The series in a line: mn = molality of the nth substance listed, in mol/kg. As to conditions: 303.15 K, 101 kPa, Liquid, Vibrating tube method.

± gives the expanded uncertainty stated by the source.

The term mass density denotes the mass of a sample divided by its volume. `O=C([O-])CCC(=O)C(=O)[O-].[Na+].[Na+]` [disodium 2-oxo-glutarate] + O: the mass density reads like this: (m1 = 0.01) 996.13 ± 0.84 kg/m3; (m1 = 0.101) 1007.45 ± 0.85 kg/m3; (m1 = 0.5) 1042.49 ± 0.85 kg/m3; (m1 = 1.001) 1093.14 ± 0.85 kg/m3; (m1 = 1.501) 1147.45 ± 0.86 kg/m3.

Turning to `N[C@@H](CCC(=O)[O-])C(=O)O.[Na+]` [sodium (S)-2-amino-4-carboxybutanoate] + O, the mass density (m1 = 0.01) is reported as 996.19 ± 0.84 kg/m3; the mass density (m1 = 0.043) amounted to 999.15 ± 0.84 kg/m3; the mass density (m1 = 0.1) was found to be 1004.02 ± 0.84 kg/m3; the mass density (m1 = 0.417) is 1030.44 ± 0.84 kg/m3; the mass density (m1 = 0.896) was 1066.63 ± 0.85 kg/m3; the mass density (m1 = 1.454) was found to be 1104.02 ± 0.85 kg/m3.

`CC(=O)C(=O)[O-].[Na+]` [sodium pyruvate] + O: the mass density is 995.66 ± 0.84 kg/m3 (m1 = 0.01); 997.57 ± 0.84 kg/m3 (m1 = 0.053); 1000.51 ± 0.84 kg/m3 (m1 = 0.101); 1018.19 ± 0.84 kg/m3 (m1 = 0.5); 1041.67 ± 0.84 kg/m3 (m1 = 1.002); 1065.87 ± 0.84 kg/m3 (m1 = 1.502).

For the origin of these results see the NIST ThermoML archive (doi:10.1016/j.fluid.2016.01.023).
